According to patent US20190085289A1, “COMPOSITIONS AND METHODS FOR PATHOGEN INACTIVATION OF PLATELETS” (Cerus Corporation, priority 2017, published 2019):

Legend:
[1] = Stability of S-59 in InterSol PAS under ambient light (HPLC); format: physicochemical; conditions: S-59 230 μM in InterSol PAS, room temp
Description: Initial studies evaluated stability of the pathogen inactivation compound amotosalen (S-59) that was formulated in a platelet additive solution (PAS). A 230 μM solution of psoralen compound S-59 (Irsch et al., Transfus Med Hemother, 38: 19-31 (2011)) was prepared in the commercially available PAS solution InterSol® (Fenwal Inc.) and maintained at room temperature under ambient light conditions. HPLC analysis was performed on samples at times listed in Table 1 for both S-59 and photoproducts. […] S-59 data are shown as both concentration (μM), as well as peak area (S-59 UV) for relative comparison to any photoproducts detected with HPLC (Table 1). Peak D and Peak E photoproducts also were observed by 22 hr and 72 hr, respectively, as well as process impurity decomposition product 4′-HMT, with peak area values indicated (Table 1).

[2] = Stability of S-59 in InterSol PAS protected from ambient light (HPLC); format: physicochemical; conditions: S-59 230 μM in InterSol PAS, room temp, protected from light
Description: Additional studies evaluated stability of the S-59 (amotosalen) pathogen inactivation compound formulated in a platelet additive solution (PAS), but protected from ambient light exposure. A 230 μM solution of S-59 was prepared in the commercially available PAS solution InterSol® (Fenwal Inc.) and maintained at room temperature protected from ambient light conditions. HPLC analysis was performed on samples at times listed in Table 2 for both S-59 and photoproducts.

4′-HMT UV peak area (HPLC) ([1]; 5 hr): 5.624
4′-HMT UV peak area (HPLC) ([1]; 6 hr): 5.090
4′-HMT UV peak area (HPLC) ([1]; 22 hr): 5.125
4′-HMT UV peak area (HPLC) ([1]; 30 hr): 5.334
4′-HMT UV peak area (HPLC) ([1]; 47 hr): 4.954
4′-HMT UV peak area (HPLC) ([1]; 56 hr): 4.742
4′-HMT UV peak area (HPLC) ([1]; 72 hr): 4.839
4′-HMT UV peak area (HPLC) ([1]; 78 hr): 4.793
4′-HMT UV peak area (HPLC) ([1]; T 0): 4.924
4′-HMT UV peak area (HPLC) ([2]; 5.5 hr): 3.7162
4′-HMT UV peak area (HPLC) ([2]; 21.5 hr): 4.3525
4′-HMT UV peak area (HPLC) ([2]; 28.5 hr): 3.8628
4′-HMT UV peak area (HPLC) ([2]; 44 hr): 4.0199
4′-HMT UV peak area (HPLC) ([2]; 45.5 hr): 4.4036
4′-HMT UV peak area (HPLC) ([2]; 53 hr): 4.0582
4′-HMT UV peak area (HPLC) ([2]; 77 hr): 4.4268
4′-HMT UV peak area (HPLC) ([2]; T 0): 3.8849
SMILES: Cc1oc2c(C)c3oc(=O)cc(C)c3cc2c1CO [4′-HMT]
